The nature of data set [1]: Slurry and solvent evaporation polymorph experiments of Compound A citrate salt (Table 9). It counts as physicochemical. The protocol: Based on the approximate solubility data of Compound A citrate salt, 18 polymorph experiments were started at RT with stirring (Table 9). Wet cakes from the slurry experiments were analyzed after 5 days of stirring. Wet cake XRPD patterns were checked and materials showing no pattern change were heated from RT to 50° C.
Procedure • 1) Slurry at RT: ˜35 mg citrate salt was slurried in different solvents in 4 mL vials using a magnetic stirrer at RT. The solids in slurry were characterized by XRPD after 3-5 days. • 2) Slurry at 50° C.: Slurries with no change in wet cake XRPD pattern when compared to starting material were heated from RT to 50° C. Samples were analyzed after 2-3 days of stirring.
Wet cake samples were isolated and kept at 25° C. for 2 h for drying. After drying, samples were analyzed by XRPD.

Data set [2] in a line: Dynamic vapor sorption (DVS) at 25° C. and RH up to 90%. Format: physicochemical. The protocol:
FIG. 4 depicts a DVS of Compound A monocitrate monohydrate Form A salt at 25° C. and RH up to 90%.

Data set [3] in a line: Plasma pharmacokinetics of compound A after twice daily dosing. It counts as in vivo.
Data set [4] in a line: Polymorph screening of Compound A citrate salt, form conversion (XRPD, DSC/TGA, DVS). Format: physicochemical. Particulars: drying of wet cake (Form B); presence of water (Form C).
Data set [5] can be described thus: Form C characterization and relative stability of the forms. Format: physicochemical.
Source text: Moreover, HNMR studies validated a 1:1 stoichiometry between the freebase and acid.
A short description of data set [6]: Form C water activity study in MeCN/water. It counts as physicochemical. The procedure:
Water activity study in MeCN/water: A water activity investigation was conducted utilizing a MeCN/water system. […] Subsequently, Form A seeds were introduced into vials with water activities between 0.01 and 0.6. […] The solids were isolated and subjected to vacuum drying at room temperature overnight.

The nature of data set [7]: Form C screening experiments. It counts as physicochemical. The settings on record: Exp. 16: 40 mg in water 0.1 mL, RT; CL → HSL.
The nature of data set [8]: Form C slurry conditioning in EtOH/water (95/5). It counts as physicochemical.
Where [9] appears, read: about 163 mg twice daily in combination with a CYP3A4 inhibitor (e.g., a strong CYP3A4 inhibitor).

Consider `CCN(C(=O)c1cc(F)ccc1Oc1cncnc1N1CC2(CCN(C[C@H]3CC[C@H](NS(=O)(=O)CC)CC3)CC2)C1)C(C)C.O.O=C(O)CC(O)(CC(=O)O)C(=O)O`, for which the Form result in data set [1] (1,4-dioxane/H2O (7:3), solvent evaporation) is “Form A (FIG. 19)”; in data set [1] (Propanol/H2O (7:3), solvent evaporation), “Form A (FIG. 19)”; in data set [1] (THF/H2O (7:3), solvent evaporation), “Amorphous (FIG. 19)”; in data set [1] (slurry, 1,4-dioxane/H2O (7:3)) it was “Form A (FIG. 18)”; in data set [1] (slurry, 2-Me-THF, starting material a 1:1 mixture (footnote)), “Form A (FIG. 18)”; in data set [1] (slurry, Acetone/H2O (7:3)), “Form A (FIG. 18)”. Further, the Form entry in data set [1] (slurry, DCM) was “Form A (FIG. 17)”; in data set [1] (slurry, EtOAc) it was “Form A (FIG. 17)”; in data set [1] (slurry, H2O), “Form A (FIG. 18)”; in data set [1] (slurry, IPAc), “Form A (FIG. 18)”; in data set [1] (slurry, MEK) it was “Form A (FIG. 17)”; in data set [1] (slurry, MTBE), “Form A (FIG. 18)”. Further, the Form entry is reported as “Form C (FIG. 14)” in data set [1] (slurry, MeCN); “dry→Form A (FIG. 16)” in data set [1] (slurry, MeOH or EtOH, after air dry); “Form B (Wet cake)→ air” in data set [1] (slurry, MeOH or EtOH, wet cake); “Form A (FIG. 18)” in data set [1] (slurry, Propanol/H2O (7:3)); “Form A (FIG. 17)” in data set [1] (slurry, THF); “Form A (FIG. 17)” in data set [1] (slurry, Toluene). Besides, in data set [2] (25° C., from 0% to 90% relative humidity), the “water absorbed (DVS)” value is given as “about 1.9%”. Also, in data set [2] (DVS at 25° C. and RH up to 90%), the hygroscopicity entry is “not hygroscopic”. For the same molecule, the “area under plasma concentration versus time curve from time 0 to 12 hours (AUC(0-12h)) of compound A” value is listed as “about 22610 ng·h/mL” in data set [3] (setting [9]) and “about 10150 ng·h/mL” in data set [3] (about 276 mg twice daily). For the same molecule, the “maximum plasma concentration (Cmax) of compound A” value was “about 3220 ng/mL” in data set [3] (setting [9]) and “about 2052 ng/mL” in data set [3] (about 276 mg twice daily).

In the case of `CCN(C(=O)c1cc(F)ccc1Oc1cncnc1N1CC2(CCN(CC3CCC(NS(=O)(=O)CC)CC3)CC2)C1)C(C)C.O=C(O)CC(O)(CC(=O)O)C(=O)O` (stereo not shown) [Form C], in data set [4], the “stability of polymorphic form / conversion” value is “unstable and converts to Form A in presence of water”. The Form conversion result in data set [1] (dried solid, upon exposure to humidity) is on record as “converts to Form A upon exposure to humidity”; in data set [5] (water and EtOH/water (95/5 v/v)), “transitions to Form A”. The “XRPD profile after heating” value in data set [5] (heating to 110° C.) is recorded as “aligned with that of Form C”. The “Solid recovered from water” value in data set [5] (overnight stirring in water at RT) was “Form A was recrystallized”. Moreover, the “XRPD pattern after drying” value in data set [5] (post-vacuum drying at room temperature) was “remained unchanged”. Besides, the XRPD entry is reported as “Form C” in data set [6] (Exp. 1: Form C 40 mg, MeCN/water aw 0.01, RT, no Form A seed); “Form C” in data set [6] (Exp. 1a: MeCN/water aw 0.01, RT, Form A seed 20 mg added); “Form C” in data set [6] (Exp. 2: Form C 40 mg, MeCN/water aw 0.22, RT, no Form A seed); “Form C” in data set [6] (Exp. 2a: MeCN/water aw 0.22, RT, Form A seed 20 mg added); “Form C” in data set [6] (Exp. 3: Form C 40 mg, MeCN/water aw 0.41, RT, no Form A seed); “Form C” in data set [6] (Exp. 3a: MeCN/water aw 0.41, RT, Form A seed 20 mg added). The XRPD result is “Form C” in data set [6] (Exp. 4: Form C 40 mg, MeCN/water aw 0.59, RT, no Form A seed); “Form C” in data set [6] (Exp. 4a: MeCN/water aw 0.59, RT, Form A seed 20 mg added); “Form A” in data set [8] (Exp. 1: Form C 40 mg, EtOH/water (95/5) 0.2, RT, no Form A seed, slurry overnight); “Form A” in data set [8] (Exp. 2: Form C, EtOH/water (95/5), RT, Form A seed 20 mg). Besides, the “Form (XRPD) after addition of Form A seeds” value in data set [6] (MeCN/water, water activities 0.01 to 0.6, overnight stirring) is recorded as “match with the Form C”. For the same molecule, the “Form stability (XRPD of wet cake)” value in data set [6] (MeCN/water, water activities 0.01 to 0.8, RT, overnight stirring) is “remained stable”. Also, the “Form (XRPD) of isolated vacuum-dried solids” value in data set [6] (water activity levels of 0.01-0.6) was “consistent with Form C”; in data set [6] (water activity of 0.8) it was “combination of Form C and Form A”. In addition, the “Crystal Form” value in data set [7] is recorded as “Form A”. In addition, in data set [8] (EtOH/water (95/5), overnight stirring), the “Form conversion on slurry conditioning” value was “converted to Form A”.

Source of the values: patent publication US20250170132A1, “SALTS AND POLYMORPHIC FORMS OF MENIN INHIBITORS AND PHARMACEUTICAL COMPOSITIONS THEREOF” (Syndax Pharmaceuticals, Inc., priority 2023, published 2025).
